Source: article PMC12751012, “Nanoscale Direct-to-Biology Optimization and Structural Insights into Selective S. aureus TrmD Inhibitors” (Journal of Medicinal Chemistry, 2025)

Molecular target: T1, S. aureus TrmD (Staphylococcus aureus, UniProt Q2FZ43)
T1 construct: made in house; host or cells: E. coli BL21
T1 sequence (Q2FZ43 1-245): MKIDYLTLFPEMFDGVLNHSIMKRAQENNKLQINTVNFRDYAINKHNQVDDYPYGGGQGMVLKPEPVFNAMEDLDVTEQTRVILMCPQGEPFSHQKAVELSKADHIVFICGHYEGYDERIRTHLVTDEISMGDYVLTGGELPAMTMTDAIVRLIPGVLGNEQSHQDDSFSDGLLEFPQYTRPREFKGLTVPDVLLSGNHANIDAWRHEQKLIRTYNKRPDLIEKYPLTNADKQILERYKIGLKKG
Assay: nanoSAR direct-to-biology FP displacement screening of crude triazoles
Assay type: binding
Settings: crude triazole at 1 μM, assuming full conversion; 500 nM TrmD, 10 nM tracer 4; read-out: % displaced tracer
In short: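 Crude CuAAC triazoles from alkyne 7 and 320 diverse azides were screened by FP displacement of 10 nM tracer 4 from 500 nM S. aureus TrmD. Buffer was 40 mM Tris HCl, 100 mM NaCl, 10 mM MgCl2, 5% glycerol, pH 7.5.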

O=c1[nH]cnc2[nH]cc(-c3cn(C[C@@H]4CC[C@@H]5C[C@@H]5C4)nn3)c12 [Compound 03A07, O=C1NC=NC=2NC=C(C=3N=NN(C3)C[C@H]4C[C@@H]5[C@@H](C5)CC4)C12]
inhibition at 1 µM: 84%

O=c1[nH]cnc2[nH]cc(-c3cn(C[C@H]4C[C@@H]5C[C@@H]5C4)nn3)c12 [Compound 03A08, O=C1NC=NC=2NC=C(C=3N=NN(C3)C[C@@H]4C[C@@H]5[C@@H](C5)C4)C12]
inhibition at 1 µM: 76%

O=c1[nH]cnc2[nH]cc(-c3cn(C[C@@H]4COCCO4)nn3)c12 [Compound 03A10, O=C1NC=NC=2NC=C(C=3N=NN(C3)C[C@H]4OCCOC4)C12]
inhibition at 1 µM: 57%

O=c1[nH]cnc2[nH]cc(-c3cn(CC(F)(F)F)nn3)c12 [Compound 03A11, FC(F)(F)CN1N=NC(C=2C=3C(=O)NC=NC3NC2)=C1]
inhibition at 1 µM: 14%

O=c1[nH]cnc2[nH]cc(-c3cn([C@H]4CCCNCC4)nn3)c12 [Compound 03A12, O=C1NC=NC=2NC=C(C=3N=NN(C3)[C@@H]4CC[NH2+]CCC4)C12]
inhibition at 1 µM: 18%

O=c1[nH]cnc2[nH]cc(-c3cn(-c4cccc5ncccc45)nn3)c12 [Compound 03B01, O=C1NC=NC=2NC=C(C=3N=NN(c4c5c(nccc5)ccc4)C3)C12]
inhibition at 1 µM: 20%

CC(CO)(CO)Cn1cc(-c2c[nH]c3nc[nH]c(=O)c23)nn1 [Compound 03B02, O=C1NC=NC=2NC=C(C=3N=NN(C3)CC(CO)(CO)C)C12]
inhibition at 1 µM: 67%

O=c1[nH]cnc2[nH]cc(-c3cn(Cc4cc(-c5ccco5)on4)nn3)c12 [Compound 03B03, O=C1NC=NC=2NC=C(C=3N=NN(C3)CC4=NOC(C=5OC=CC5)=C4)C12]
inhibition at 1 µM: 49%

O=c1[nH]cnc2[nH]cc(-c3cn(CCn4cnc5ccccc54)nn3)c12 [Compound 03B04, O=C1NC=NC=2NC=C(C=3N=NN(C3)CCN4c5c(N=C4)cccc5)C12]
inhibition at 1 µM: 71%

Cc1cc(C)cc(-n2cc(-c3c[nH]c4nc[nH]c(=O)c34)nn2)c1 [Compound 03B05, O=C1NC=NC=2NC=C(C=3N=NN(c4cc(cc(c4)C)C)C3)C12]
inhibition at 1 µM: 24%

O=c1[nH]cnc2[nH]cc(-c3cn([C@H]4CC5(CCC5)Oc5ccc(F)cc54)nn3)c12 [Compound 03B06, Fc1cc2c(OC3(C[C@@H]2N4N=NC(C=5C=6C(=O)NC=NC6NC5)=C4)CCC3)cc1]
inhibition at 1 µM: 70%

NC(=O)[C@@H](c1ccc(F)cc1)n1cc(-c2c[nH]c3nc[nH]c(=O)c23)nn1 [Compound 03B07, Fc1ccc(cc1)[C@@H](N2N=NC(C=3C=4C(=O)NC=NC4NC3)=C2)C(=O)N]
inhibition at 1 µM: 16%

Cc1nc(C)c(Cn2cc(-c3c[nH]c4nc[nH]c(=O)c34)nn2)o1 [Compound 03B08, O=C1NC=NC=2NC=C(C=3N=NN(C3)CC=4OC(=NC4C)C)C12]
inhibition at 1 µM: 50%

O=c1[nH]cnc2[nH]cc(-c3cn(-c4ccc(C(F)(F)F)cc4)nn3)c12 [Compound 03B09, FC(F)(F)c1ccc(N2N=NC(C=3C=4C(=O)NC=NC4NC3)=C2)cc1]
inhibition at 1 µM: 15%

COC(=O)CCCn1cc(-c2c[nH]c3nc[nH]c(=O)c23)nn1 [Compound 03B10, O=C(OC)CCCN1N=NC(C=2C=3C(=O)NC=NC3NC2)=C1]
inhibition at 1 µM: 58%

O=c1[nH]cnc2[nH]cc(-c3cn(CCOCC4CCCC4)nn3)c12 [Compound 03B11, O=C1NC=NC=2NC=C(C=3N=NN(C3)CCOCC4CCCC4)C12]
inhibition at 1 µM: 44%

C[C@@H]1CNC[C@H]1n1cc(-c2c[nH]c3nc[nH]c(=O)c23)nn1 [Compound 03B12, O=C1NC=NC=2NC=C(C=3N=NN(C3)[C@H]4[C@@H](C[NH2+]C4)C)C12]
inhibition at 1 µM: 19%

O=c1[nH]cnc2[nH]cc(-c3cn(CCP(=O)(O)O)nn3)c12 [Compound 03C01, P([O-])([O-])(=O)CCN1N=NC(C=2C=3C(=O)NC=NC3NC2)=C1]
inhibition at 1 µM: 28%

C[C@@H](CN)n1cc(-c2c[nH]c3nc[nH]c(=O)c23)nn1 [Compound 03C02, O=C1NC=NC=2NC=C(C=3N=NN(C3)[C@H](C[NH3+])C)C12]
inhibition at 1 µM: 40%

O=c1[nH]cnc2[nH]cc(-c3cn(Cc4ccc5c(c4)OCO5)nn3)c12 [Compound 03C03, O=C1NC=NC=2NC=C(C=3N=NN(C3)Cc4cc5OCOc5cc4)C12]
inhibition at 1 µM: 70%

Cc1cc(F)cc(-n2cc(-c3c[nH]c4nc[nH]c(=O)c34)nn2)c1 [Compound 03C04, Fc1cc(N2N=NC(C=3C=4C(=O)NC=NC4NC3)=C2)cc(c1)C]
inhibition at 1 µM: 17%

O=c1[nH]cnc2[nH]cc(-c3cn(-c4ccc5c(c4)OCO5)nn3)c12 [Compound 03C05, O=C1NC=NC=2NC=C(C=3N=NN(c4cc5OCOc5cc4)C3)C12]
inhibition at 1 µM: 59%

O=c1[nH]cnc2[nH]cc(-c3cn(-c4ccc5c(c4)NCC5)nn3)c12 [Compound 03C06, O=C1NC=NC=2NC=C(C=3N=NN(c4cc5NCCc5cc4)C3)C12]
inhibition at 1 µM: 25%

CC(C)(C)OCCCn1cc(-c2c[nH]c3nc[nH]c(=O)c23)nn1 [Compound 03C07, O=C1NC=NC=2NC=C(C=3N=NN(C3)CCCOC(C)(C)C)C12]
inhibition at 1 µM: 42%

COC(=O)c1coc(Cn2cc(-c3c[nH]c4nc[nH]c(=O)c34)nn2)n1 [Compound 03C08, O=C(OC)C=1N=C(OC1)CN2N=NC(C=3C=4C(=O)NC=NC4NC3)=C2]
inhibition at 1 µM: 40%

O=c1[nH]cnc2[nH]cc(-c3cn(C[C@@H]4CCCN4)nn3)c12 [Compound 03C09, O=C1NC=NC=2NC=C(C=3N=NN(C3)C[C@H]4[NH2+]CCC4)C12]
inhibition at 1 µM: 58%

C[C@@H](Cn1cc(-c2c[nH]c3nc[nH]c(=O)c23)nn1)c1ccccn1 [Compound 03C10, O=C1NC=NC=2NC=C(C=3N=NN(C3)C[C@@H](c4ncccc4)C)C12]
inhibition at 1 µM: 63%

COCCn1cc(-c2c[nH]c3nc[nH]c(=O)c23)nn1 [Compound 03C11, O=C1NC=NC=2NC=C(C=3N=NN(C3)CCOC)C12]
inhibition at 1 µM: 29%

O=c1[nH]cnc2[nH]cc(-c3cn(C[C@H]4CCNC4)nn3)c12 [Compound 03C12, O=C1NC=NC=2NC=C(C=3N=NN(C3)C[C@@H]4C[NH2+]CC4)C12]
inhibition at 1 µM: 74%

Cc1ccc([C@@H](O)Cn2cc(-c3c[nH]c4nc[nH]c(=O)c34)nn2)cc1 [Compound 03D01, O=C1NC=NC=2NC=C(C=3N=NN(C3)C[C@H](O)c4ccc(cc4)C)C12]
inhibition at 1 µM: 65%

C[C@@H]1C[C@H](n2cc(-c3c[nH]c4nc[nH]c(=O)c34)nn2)c2ccsc2S1(=O)=O [Compound 03D02, S1(=O)(=O)C=2SC=CC2[C@@H](N3N=NC(C=4C=5C(=O)NC=NC5NC4)=C3)C[C@H]1C]
inhibition at 1 µM: 27%

O=c1[nH]cnc2[nH]cc(-c3cn(C[C@H](O)Cc4ccccc4)nn3)c12 [Compound 03D03, O=C1NC=NC=2NC=C(C=3N=NN(C3)C[C@H](O)Cc4ccccc4)C12]
inhibition at 1 µM: 39%

CCOC(=O)C12CC(Cn3cc(-c4c[nH]c5nc[nH]c(=O)c45)nn3)(C1)OC21CCOCC1 [Compound 03D04, O=C(OCC)C12C3(OC(CN4N=NC(C=5C=6C(=O)NC=NC6NC5)=C4)(C1)C2)CCOCC3]
inhibition at 1 µM: 51%

Nc1ccc(-n2cc(-c3c[nH]c4nc[nH]c(=O)c34)nn2)cc1 [Compound 03D05, O=C1NC=NC=2NC=C(C=3N=NN(c4ccc(N)cc4)C3)C12]
inhibition at 1 µM: 2.34%

COCC(COC)n1cc(-c2c[nH]c3nc[nH]c(=O)c23)nn1 [Compound 03D06, O=C1NC=NC=2NC=C(C=3N=NN(C3)C(COC)COC)C12]
inhibition at 1 µM: 24%

O=c1[nH]cnc2[nH]cc(-c3cn([C@H]4CCNC4)nn3)c12 [Compound 03D07, O=C1NC=NC=2NC=C(C=3N=NN(C3)[C@@H]4C[NH2+]CC4)C12]
inhibition at 1 µM: 27%
